From paper PMC11299231 (Steroids, 2024)
Like-named read-outs stand apart in the source and are kept apart here.

Experiments:
[1] = system: HaCaT; assay: Antiproliferative activity assay; format: cell-based, human; settings: for IC50: 48 h, read-out: IC50 ± SEM, HaCaT
[2] = system: HT-29; assay: Antiproliferative activity assay; format: cell-based, human; settings: read-out: IC50 ± SEM, HT-29
[3] = system: T84 wt; assay: Antiproliferative activity assay; format: cell-based, human; settings: for IC50: 48 h, read-out: IC50 ± SEM, T84 wt
[4] = system: DU145 (AR-); assay: Antiproliferative activity assay; format: cell-based, human; settings: for IC50: read-out: IC50 ± SEM, DU145 (AR−)
[5] = system: PC3 (AR-); assay: Antiproliferative activity assay; format: cell-based, human; settings: for IC50: 48 h, read-out: IC50 ± SEM, PC3 (AR−)
[6] = system: M21; assay: Antiproliferative activity assay; format: cell-based, human; settings: read-out: IC50 ± SEM, M21
[7] = system: LNCaP (AR + ); assay: Antiproliferative activity assay; format: cell-based, human; settings: read-out: IC50 ± SEM, LNCaP (AR + ); prostate adenocarcinoma cells, 48 h, SRB
[8] = system: MCF7 (ER + ); assay: Antiproliferative activity assay; format: cell-based, human; settings: read-out: IC50 ± SEM, MCF7 (ER + )
[9] = molecular target: T1, CYP3A4 (Homo sapiens, UniProt P08684); settings: read-out: IC50, BFC debenzylation activity of CYP3A4; soluble reconstituted system, 37 °C, BFC substrate
T1 sequence (P08684 whole entry): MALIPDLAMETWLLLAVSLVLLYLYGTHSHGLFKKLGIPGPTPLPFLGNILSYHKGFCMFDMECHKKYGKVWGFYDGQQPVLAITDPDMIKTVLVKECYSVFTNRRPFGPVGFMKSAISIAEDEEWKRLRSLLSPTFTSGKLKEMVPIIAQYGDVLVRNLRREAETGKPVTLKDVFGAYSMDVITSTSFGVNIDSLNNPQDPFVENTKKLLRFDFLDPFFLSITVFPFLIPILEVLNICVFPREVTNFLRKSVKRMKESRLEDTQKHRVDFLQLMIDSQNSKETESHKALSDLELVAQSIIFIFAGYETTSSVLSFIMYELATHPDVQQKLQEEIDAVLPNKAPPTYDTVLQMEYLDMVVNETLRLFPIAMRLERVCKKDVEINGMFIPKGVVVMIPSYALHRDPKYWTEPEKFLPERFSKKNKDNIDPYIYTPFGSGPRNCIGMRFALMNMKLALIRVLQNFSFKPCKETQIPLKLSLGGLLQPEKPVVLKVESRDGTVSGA

[10] = system: MDA-MB-231 (ER-); assay: Antiproliferative activity assay; format: cell-based, human; settings: read-out: IC50 ± SEM, MDA-MB-231 (ER−)
[11] = molecular target: T1, CYP3A4; settings: Soret band blue shift, recombinant CYP3A4
[12] = breast carcinoma cells, 48 h, SRB
[13] = at the maximal concentration tested (5 μM)
[14] = at the maximum concentration tested (5 μM)

How did the IC50 ([1]; Homo sapiens, HaCaT) turn out when `CC(O)(CS(=O)(=O)c1ccc(F)cc1)C(=O)Nc1ccc(C#N)c(C(F)(F)F)c1` (centres unmarked) [Bicalutamide, bicalutamide, reference compound] was run?
Its IC50 is 95 ± 5 µM.

And the IC50 ([2]; Homo sapiens, HT-29, 48 h)?
The IC50 was 42 ± 2 µM.

What about the IC50 ([3]; Homo sapiens) of the same compound?
The IC50 was 56 ± 2 µM.

What about the IC50 ([4]; Homo sapiens, DU-145, 48 h) of the same compound?
The IC50 was 52 ± 1 µM.

And the IC50 ([5]; Homo sapiens, PC3/AR)?
The IC50 was 62 ± 3 µM.

What about the IC50 ([6]; Homo sapiens, M21, 48 h) of the same compound?
Its IC50 is 49 ± 1 µM.

With `C[C@]12CC[C@H]3[C@@H]([C@H](C/C=C/Cn4cc([C@]5(O)CC[C@H]6[C@@H]7CCc8cc(O)ccc8[C@H]7CC[C@@]65C)nn4)CC4=CC(=O)CC[C@@]43C)[C@@H]1CC[C@@H]2O` [Compound 1, (E)-17β-hydroxy-7α-{4-[4-(estradiol-17α-yl)-[1,2,3]triazol-1-yl]-but-2-enyl}−4-androsten-3-one] as the compound, how does the IC50 [7] read?
Its IC50 is > 5 µM.

What about the IC50 [8, 12] of the same compound?
The IC50 was 4900 ± 400 nM.

And the “antiproliferative activity on HaCaT cells” value [1, 13]?
Its value is “inactive”.

What about the IC50 ([1]; normal immortalized human keratinocytes, SRB) of the same compound?
The IC50 was > 5 µM.

And the IC50 ([2]; colon carcinoma cells, 48 h, SRB)?
Its IC50 is 3.5 ± 0.1 µM.

What about the IC50 [9] of the same compound?
Its IC50 is > 5 µM.

And the “antiproliferative activity on T84 wt cells” value [3, 13]?
Its value is “inactive”.

And the IC50 ([3]; colon adenocarcinoma cells, SRB)?
The IC50 was > 5 µM.

What about the “antiproliferative effect on DU145 (AR-) cells” value [4, 14] of the same compound?
Its value is “no effect”.

And the IC50 ([4]; prostate adenocarcinoma cells, 48 h, SRB)?
Its IC50 is > 5 µM.

What about the IC50 [10, 12] of the same compound?
Its IC50 is > 5 µM.

And the “antiproliferative effect on PC3 (AR-) cells” value [5, 14]?
The value was “no effect”.

And the IC50 ([5]; prostate adenocarcinoma cells, SRB)?
Its IC50 is > 5 µM.

What about the high-spin shift [11] of the same compound?
The high-spin shift was 23%.

What about the IC50 ([6]; melanoma cells, 48 h, SRB) of the same compound?
Its IC50 is 2.3 ± 0.1 µM.

For `CC/C(=C(\c1ccc(O)cc1)c1ccc(OCCN(C)C)cc1)c1ccccc1` [Compound 4-OHT, 4-hydroxytamoxifen, reference compound], which IC50 ([8]; Homo sapiens, MCF7, 48 h) is on record?
The IC50 was 13 ± 5 nM.

And the IC50 ([1]; Homo sapiens, HaCaT)?
Its IC50 is 10.4 ± 0.6 µM.

And the IC50 ([2]; Homo sapiens, HT-29, 48 h)?
Its IC50 is 0.9 ± 0.2 µM.

What about the IC50 ([3]; Homo sapiens) of the same compound?
Its IC50 is 6.9 ± 0.3 µM.

What about the IC50 ([4]; Homo sapiens, DU-145, 48 h) of the same compound?
The IC50 was 13 ± 1 µM.

And the IC50 ([10]; Homo sapiens, MDA-MB-231, 48 h)?
The IC50 was 7 ± 1 µM.

What about the IC50 ([5]; Homo sapiens, PC3/AR) of the same compound?
Its IC50 is 13 ± 1 µM.

And the IC50 ([6]; Homo sapiens, M21, 48 h)?
Its IC50 is 4.2 ± 0.2 µM.
